Results: patent publication US9340590B2 (priority 2011, dated 2016)
Positions of bridges follow the written chain, without caps; N, C: chain ends. Non-standard residues stand in square brackets, D forms with d. Residues, ends and D or L forms follow the SMILES beside them. Nle = CCCC[C@H](N)C(=O)O; Nva = CCC[C@H](N)C(=O)O; Abu = CC[C@H](N)C(=O)O; Aib = CC(C)(N)C(=O)O; βAla = NCCC(=O)O

Assays:
Assay in all cases: cell-based
hNav1.7 = hNav1.7 (Homo sapiens, UniProt Q15858); assay type: cell-based; conditions: IonWorks Quattro, use-dependent block, hNav1.7; read-out: IWQ Use Nav1.7
hNav1.5 = hNav1.5 (Homo sapiens, UniProt Q14524); conditions: IonWorks Quattro, use-dependent block, hNav1.5; read-out: IWQ Use Nav1.5
hNav1.5, sequence (Q14524 whole entry, looked up): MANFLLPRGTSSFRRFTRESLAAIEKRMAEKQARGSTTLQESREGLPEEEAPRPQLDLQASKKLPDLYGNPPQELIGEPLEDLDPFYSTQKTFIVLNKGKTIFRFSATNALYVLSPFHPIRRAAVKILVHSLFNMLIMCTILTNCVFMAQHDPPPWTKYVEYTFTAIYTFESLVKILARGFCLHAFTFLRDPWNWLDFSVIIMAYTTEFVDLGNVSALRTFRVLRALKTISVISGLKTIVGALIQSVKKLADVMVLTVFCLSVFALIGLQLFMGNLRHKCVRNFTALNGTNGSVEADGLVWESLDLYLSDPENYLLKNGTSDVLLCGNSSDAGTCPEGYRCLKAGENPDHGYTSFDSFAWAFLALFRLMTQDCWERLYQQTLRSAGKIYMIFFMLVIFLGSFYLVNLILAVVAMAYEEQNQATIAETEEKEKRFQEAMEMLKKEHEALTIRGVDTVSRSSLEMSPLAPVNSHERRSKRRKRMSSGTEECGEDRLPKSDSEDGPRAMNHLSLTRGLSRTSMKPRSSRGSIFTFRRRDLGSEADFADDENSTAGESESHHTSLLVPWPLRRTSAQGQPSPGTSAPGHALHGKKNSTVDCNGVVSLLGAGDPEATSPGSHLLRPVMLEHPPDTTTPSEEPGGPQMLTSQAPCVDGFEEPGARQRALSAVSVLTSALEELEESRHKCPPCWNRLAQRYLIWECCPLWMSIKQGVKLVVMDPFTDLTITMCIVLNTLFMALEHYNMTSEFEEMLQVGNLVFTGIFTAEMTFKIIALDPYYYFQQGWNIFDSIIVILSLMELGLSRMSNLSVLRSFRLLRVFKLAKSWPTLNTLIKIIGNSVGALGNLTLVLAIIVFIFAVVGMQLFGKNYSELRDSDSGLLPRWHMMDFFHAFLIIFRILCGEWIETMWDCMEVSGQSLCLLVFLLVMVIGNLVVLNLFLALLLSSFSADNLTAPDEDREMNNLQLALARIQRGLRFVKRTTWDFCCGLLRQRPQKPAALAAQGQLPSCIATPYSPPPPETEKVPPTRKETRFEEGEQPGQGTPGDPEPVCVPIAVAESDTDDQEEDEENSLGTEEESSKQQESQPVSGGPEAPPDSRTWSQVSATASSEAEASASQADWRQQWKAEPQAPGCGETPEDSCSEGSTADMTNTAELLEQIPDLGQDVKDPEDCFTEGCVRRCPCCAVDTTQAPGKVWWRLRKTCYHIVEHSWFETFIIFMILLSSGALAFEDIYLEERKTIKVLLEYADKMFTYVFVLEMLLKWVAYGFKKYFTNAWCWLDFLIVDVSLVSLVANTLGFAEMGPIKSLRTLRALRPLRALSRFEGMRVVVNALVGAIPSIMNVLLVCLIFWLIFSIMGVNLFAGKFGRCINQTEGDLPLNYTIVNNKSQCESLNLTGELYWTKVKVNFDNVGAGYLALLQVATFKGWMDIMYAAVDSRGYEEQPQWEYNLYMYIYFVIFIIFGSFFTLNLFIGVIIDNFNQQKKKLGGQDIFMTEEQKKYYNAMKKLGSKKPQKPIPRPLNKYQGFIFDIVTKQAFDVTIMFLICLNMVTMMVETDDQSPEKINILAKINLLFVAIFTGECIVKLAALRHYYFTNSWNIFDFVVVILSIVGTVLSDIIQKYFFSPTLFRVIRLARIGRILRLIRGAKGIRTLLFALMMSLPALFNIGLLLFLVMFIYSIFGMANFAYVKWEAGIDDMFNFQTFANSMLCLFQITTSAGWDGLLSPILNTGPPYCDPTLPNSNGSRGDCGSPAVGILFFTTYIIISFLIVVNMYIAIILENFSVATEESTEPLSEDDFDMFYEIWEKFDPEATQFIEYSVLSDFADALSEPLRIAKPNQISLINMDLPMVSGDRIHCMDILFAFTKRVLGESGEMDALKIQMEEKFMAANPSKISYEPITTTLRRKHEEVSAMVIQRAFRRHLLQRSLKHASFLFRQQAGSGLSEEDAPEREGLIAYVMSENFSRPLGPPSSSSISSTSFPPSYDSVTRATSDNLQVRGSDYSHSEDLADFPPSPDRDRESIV

hNav1.3 = hNav1.3 (Homo sapiens, UniProt Q9NY46); conditions: IonWorks Quattro, use-dependent block, hNav1.3; read-out: IWQ Use Nav1.3
hNav1.3, sequence (Q9NY46 whole entry, looked up): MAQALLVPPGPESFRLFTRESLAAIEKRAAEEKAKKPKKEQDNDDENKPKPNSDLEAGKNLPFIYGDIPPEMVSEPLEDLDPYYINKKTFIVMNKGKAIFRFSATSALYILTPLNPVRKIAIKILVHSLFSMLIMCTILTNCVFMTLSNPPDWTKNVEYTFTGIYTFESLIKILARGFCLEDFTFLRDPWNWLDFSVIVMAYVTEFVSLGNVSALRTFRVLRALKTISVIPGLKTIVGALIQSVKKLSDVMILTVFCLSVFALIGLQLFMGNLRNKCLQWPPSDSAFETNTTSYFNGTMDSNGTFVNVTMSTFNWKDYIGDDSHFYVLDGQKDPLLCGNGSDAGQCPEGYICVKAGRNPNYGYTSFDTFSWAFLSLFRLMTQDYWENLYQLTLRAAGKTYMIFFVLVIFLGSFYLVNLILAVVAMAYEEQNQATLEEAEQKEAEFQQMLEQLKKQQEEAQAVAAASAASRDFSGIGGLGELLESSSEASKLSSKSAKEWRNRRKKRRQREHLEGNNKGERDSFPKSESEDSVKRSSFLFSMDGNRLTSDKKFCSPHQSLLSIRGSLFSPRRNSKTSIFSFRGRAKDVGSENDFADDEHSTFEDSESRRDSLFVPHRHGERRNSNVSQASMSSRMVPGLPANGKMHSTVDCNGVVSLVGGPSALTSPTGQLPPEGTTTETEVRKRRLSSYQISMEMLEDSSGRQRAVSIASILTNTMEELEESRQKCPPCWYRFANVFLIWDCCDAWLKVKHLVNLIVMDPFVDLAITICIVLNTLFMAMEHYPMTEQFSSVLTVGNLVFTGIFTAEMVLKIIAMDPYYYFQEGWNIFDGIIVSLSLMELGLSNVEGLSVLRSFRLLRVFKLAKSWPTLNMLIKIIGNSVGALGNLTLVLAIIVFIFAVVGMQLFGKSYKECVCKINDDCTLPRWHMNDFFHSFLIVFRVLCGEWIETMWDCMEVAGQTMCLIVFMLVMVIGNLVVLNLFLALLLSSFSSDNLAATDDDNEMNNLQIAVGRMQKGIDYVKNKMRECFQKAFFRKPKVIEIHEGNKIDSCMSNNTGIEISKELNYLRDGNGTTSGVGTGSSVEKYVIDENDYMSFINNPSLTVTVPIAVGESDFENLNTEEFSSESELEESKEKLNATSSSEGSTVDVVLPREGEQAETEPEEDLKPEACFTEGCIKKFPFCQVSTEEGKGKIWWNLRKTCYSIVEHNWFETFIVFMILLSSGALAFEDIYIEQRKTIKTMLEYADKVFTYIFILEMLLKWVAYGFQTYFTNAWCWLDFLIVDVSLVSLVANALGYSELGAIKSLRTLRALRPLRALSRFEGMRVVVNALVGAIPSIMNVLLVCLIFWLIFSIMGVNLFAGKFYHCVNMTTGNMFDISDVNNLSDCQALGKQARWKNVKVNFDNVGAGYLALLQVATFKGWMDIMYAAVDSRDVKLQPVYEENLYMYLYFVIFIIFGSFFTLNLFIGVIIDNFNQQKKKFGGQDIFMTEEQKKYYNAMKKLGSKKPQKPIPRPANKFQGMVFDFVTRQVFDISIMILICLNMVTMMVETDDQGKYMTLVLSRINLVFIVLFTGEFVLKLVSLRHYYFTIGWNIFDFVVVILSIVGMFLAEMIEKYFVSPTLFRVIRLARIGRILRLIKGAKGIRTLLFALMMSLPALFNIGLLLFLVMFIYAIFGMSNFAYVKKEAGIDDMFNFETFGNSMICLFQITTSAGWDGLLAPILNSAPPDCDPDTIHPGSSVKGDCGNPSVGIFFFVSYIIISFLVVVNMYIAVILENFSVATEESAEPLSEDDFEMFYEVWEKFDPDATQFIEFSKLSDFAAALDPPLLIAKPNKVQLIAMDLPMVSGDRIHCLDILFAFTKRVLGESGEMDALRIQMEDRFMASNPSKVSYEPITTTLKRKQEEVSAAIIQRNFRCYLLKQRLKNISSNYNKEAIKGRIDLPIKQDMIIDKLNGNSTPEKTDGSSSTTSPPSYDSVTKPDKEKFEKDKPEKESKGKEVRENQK

With CC[C@H](C)[C@@H]1NC(=O)[C@@H]2CSSC[C@@H]3NC(=O)[C@H](C(C)C)NC(=O)[C@H](CC(C)C)NC(=O)[C@H](CC(N)=O)NC(=O)[C@@H]4CCCN4C(=O)[C@H](CCCNC(=N)N)NC(=O)[C@H](CSSC[C@H](NC(=O)[C@@H](N)CC(=O)O)C(=O)N[C@@H](CC(C)C)C(=O)NCC(=O)N[C@@H](C)C(=O)N[C@@H](CC(C)C)C(=O)N[C@@H](CCCNC(=N)N)C(=O)N[C@@H](CCCCN)C(=O)N2)NC(=O)[C@H](CSSC[C@@H](C(=O)N[C@@H](CCCCN)C(=O)N[C@@H](Cc2ccc(O)cc2)C(=O)N[C@H](C(=O)N[C@@H](Cc2ccccc2)C(=O)O)C(C)C)NC(=O)[C@H](Cc2c[nH]c4ccccc24)NC(=O)[C@H](Cc2c[nH]cn2)NC(=O)[C@H](Cc2c[nH]cn2)NC(=O)[C@H]([C@@H](C)O)NC(=O)[C@H](CCCNC(=N)N)NC(=O)[C@H](CO)NC3=O)NC(=O)[C@H](CCCCN)NC(=O)[C@H](CC(=O)O)NC(=O)[C@H](CC(N)=O)NC(=O)[C@H](CC(=O)O)NC(=O)[C@@H]2CCCN2C1=O [compound 599] (H-DCLGALRKCIPDNDKCCRPNLVCSRTHHWCKYVF-OH; disulfide 2-17, 9-23, 16-30) the IC50 (hNav1.7) was greater than 5000 nM, the IC50 (hNav1.5) was 12.7 µM and the IC50 (hNav1.3) was 2200 nM.
CC[C@H](C)[C@@H]1NC(=O)[C@@H]2CSSC[C@@H]3NC(=O)[C@H](C(C)C)NC(=O)[C@H](CC(C)C)NC(=O)[C@H](CC(N)=O)NC(=O)[C@@H]4CCCN4C(=O)[C@H](CCCNC(=N)N)NC(=O)[C@H](CSSC[C@H](NC(=O)[C@@H](N)CC(=O)O)C(=O)N[C@@H](CC(C)C)C(=O)NCC(=O)N[C@@H](C)C(=O)N[C@@H](CC(C)C)C(=O)N[C@@H](CCCNC(=N)N)C(=O)N[C@@H](CCCCN)C(=O)N2)NC(=O)[C@H](CSSC[C@@H](C(=O)N[C@@H](CCCCN)C(=O)N[C@@H](Cc2ccc(O)cc2)C(=O)N[C@H](C(=O)N[C@@H](Cc2ccccc2)C(=O)O)C(C)C)NC(=O)[C@H](Cc2c[nH]c4ccccc24)NC(=O)[C@H](CCCCN)NC(=O)[C@H](Cc2c[nH]cn2)NC(=O)[C@H]([C@@H](C)O)NC(=O)[C@H](CCCNC(=N)N)NC(=O)[C@H](CO)NC3=O)NC(=O)[C@H](CCCCN)NC(=O)[C@H](CC(=O)O)NC(=O)[C@H](CC(N)=O)NC(=O)[C@H](CC(=O)O)NC(=O)[C@@H]2CCCN2C1=O [compound 600] (H-DCLGALRKCIPDNDKCCRPNLVCSRTHKWCKYVF-OH; disulfide 2-17, 9-23, 16-30) gave an IC50 (hNav1.7) greater than 5000 nM, an IC50 (hNav1.5) of 12.6 µM and an IC50 (hNav1.3) of 3100 nM.
For CC[C@H](C)[C@@H]1NC(=O)[C@@H]2CSSC[C@@H]3NC(=O)[C@H](C(C)C)NC(=O)[C@H](CC(C)C)NC(=O)[C@H](CC(N)=O)NC(=O)[C@@H]4CCCN4C(=O)[C@H](CCCNC(=N)N)NC(=O)[C@H](CSSC[C@H](NC(=O)[C@@H](N)CC(=O)O)C(=O)N[C@@H](CC(C)C)C(=O)NCC(=O)N[C@@H](C)C(=O)N[C@@H](CC(C)C)C(=O)N[C@@H](CCCNC(=N)N)C(=O)N[C@@H](CCCCN)C(=O)N2)NC(=O)[C@H](CSSC[C@@H](C(=O)N[C@@H](CCCCN)C(=O)N[C@@H](Cc2ccc(O)cc2)C(=O)N[C@H](C(=O)N[C@@H](Cc2ccccc2)C(=O)O)C(C)C)NC(=O)[C@H](Cc2c[nH]c4ccccc24)NC(=O)[C@H](CC(N)=O)NC(=O)[C@H](Cc2c[nH]cn2)NC(=O)[C@H]([C@@H](C)O)NC(=O)[C@H](CCCNC(=N)N)NC(=O)[C@H](CO)NC3=O)NC(=O)[C@H](CCCCN)NC(=O)[C@H](CC(=O)O)NC(=O)[C@H](CC(N)=O)NC(=O)[C@H](CC(=O)O)NC(=O)[C@@H]2CCCN2C1=O [compound 601] (H-DCLGALRKCIPDNDKCCRPNLVCSRTHNWCKYVF-OH; disulfide 2-17, 9-23, 16-30), the IC50 (hNav1.7) was greater than 5000 nM, the IC50 (hNav1.5) was 10 µM and the IC50 (hNav1.3) was 2600 nM.
Molecule CC[C@H](C)[C@@H]1NC(=O)[C@@H]2CSSC[C@@H]3NC(=O)[C@H](C(C)C)NC(=O)[C@H](CC(C)C)NC(=O)[C@H](CC(N)=O)NC(=O)[C@@H]4CCCN4C(=O)[C@H](CCCNC(=N)N)NC(=O)[C@H](CSSC[C@H](NC(=O)[C@@H](N)CC(=O)O)C(=O)N[C@@H](CC(C)C)C(=O)NCC(=O)NCCC(=O)N[C@@H](Cc4ccccc4)C(=O)N[C@@H](CCCNC(=N)N)C(=O)N[C@@H](CCCCN)C(=O)N2)NC(=O)[C@H](CSSC[C@@H](C(=O)N[C@@H](CCCCN)C(=O)N[C@@H](Cc2ccc(O)cc2)C(=O)N[C@H](C(=O)N[C@@H](Cc2ccccc2)C(N)=O)C(C)C)NC(=O)[C@H](Cc2c[nH]c4ccccc24)NC(=O)[C@H](CCCCN)NC(=O)[C@H](Cc2c[nH]cn2)NC(=O)[C@H]([C@@H](C)O)NC(=O)[C@H](CCCNC(=N)N)NC(=O)[C@H](CO)NC3=O)NC(=O)[C@H](CCCCN)NC(=O)[C@H](CC(=O)O)NC(=O)[C@H](CC(N)=O)NC(=O)[C@H](CC(=O)O)NC(=O)[C@@H]2CCCN2C1=O [compound 603] (H-DCLG[βAla]FRKCIPDNDKCCRPNLVCSRTHKWCKYVF-NH2; disulfide 2-17, 9-23, 16-30) has an IC50 (hNav1.7) of 15300 nM, an IC50 (hNav1.5) of 9.5 µM and an IC50 (hNav1.3) of 11800 nM.
CC[C@H](C)[C@@H]1NC(=O)[C@@H]2CSSC[C@@H]3NC(=O)[C@H](C(C)C)NC(=O)[C@H](CC(C)C)NC(=O)[C@H](CC(N)=O)NC(=O)[C@@H]4CCCN4C(=O)[C@H](CCCNC(=N)N)NC(=O)[C@H](CSSC[C@H](NC(=O)[C@@H](N)CC(=O)O)C(=O)N[C@@H](CC(C)C)C(=O)NCC(=O)NC(C)(C)C(=O)N[C@@H](Cc4ccccc4)C(=O)N[C@@H](CCCNC(=N)N)C(=O)N[C@@H](CCCCN)C(=O)N2)NC(=O)[C@H](CSSC[C@@H](C(=O)N[C@@H](CCCCN)C(=O)N[C@@H](Cc2ccc(O)cc2)C(=O)N[C@H](C(=O)N[C@@H](Cc2ccccc2)C(N)=O)C(C)C)NC(=O)[C@H](Cc2c[nH]c4ccccc24)NC(=O)[C@H](CCCCN)NC(=O)[C@H](Cc2c[nH]cn2)NC(=O)[C@H]([C@@H](C)O)NC(=O)[C@H](CCCNC(=N)N)NC(=O)[C@H](CO)NC3=O)NC(=O)[C@H](CCCCN)NC(=O)[C@H](CC(=O)O)NC(=O)[C@H](CC(N)=O)NC(=O)[C@H](CC(=O)O)NC(=O)[C@@H]2CCCN2C1=O [compound 604] (H-DCLG[Aib]FRKCIPDNDKCCRPNLVCSRTHKWCKYVF-NH2; disulfide 2-17, 9-23, 16-30) gave an IC50 (hNav1.7) of 440 nM, an IC50 (hNav1.5) of 6.4 µM and an IC50 (hNav1.3) of 610 nM.
In the case of CC[C@@H]1NC(=O)CNC(=O)[C@H](CC(C)C)NC(=O)[C@@H](NC(=O)[C@@H](N)CC(=O)O)CSSC[C@@H]2NC(=O)[C@@H]3CSSC[C@@H](C(=O)N[C@@H](CCCCN)C(=O)N[C@@H](Cc4ccc(O)cc4)C(=O)N[C@H](C(=O)N[C@@H](Cc4ccccc4)C(N)=O)C(C)C)NC(=O)[C@H](Cc4c[nH]c5ccccc45)NC(=O)[C@H](CCCCN)NC(=O)[C@H](Cc4c[nH]cn4)NC(=O)[C@H]([C@@H](C)O)NC(=O)[C@H](CCCNC(=N)N)NC(=O)[C@H](CO)NC(=O)[C@H](CSSC[C@H](NC(=O)[C@H](CCCCN)NC(=O)[C@H](CCCNC(=N)N)NC(=O)[C@H](Cc4ccccc4)NC1=O)C(=O)N[C@@H]([C@@H](C)CC)C(=O)N1CCC[C@H]1C(=O)N[C@@H](CC(=O)O)C(=O)N[C@@H](CC(N)=O)C(=O)N[C@@H](CC(=O)O)C(=O)N[C@@H](CCCCN)C(=O)N3)NC(=O)[C@H](C(C)C)NC(=O)[C@H](CC(C)C)NC(=O)[C@H](CC(N)=O)NC(=O)[C@@H]1CCCN1C(=O)[C@H](CCCNC(=N)N)NC2=O [compound 605] (H-DCLG[Abu]FRKCIPDNDKCCRPNLVCSRTHKWCKYVF-NH2; disulfide 2-17, 9-23, 16-30), the IC50 (hNav1.7) is reported as 170 nM, the IC50 (hNav1.5) is reported as 9.5 µM and the IC50 (hNav1.3) is reported as 360 nM.
With CCC[C@@H]1NC(=O)CNC(=O)[C@H](CC(C)C)NC(=O)[C@@H](NC(=O)[C@@H](N)CC(=O)O)CSSC[C@@H]2NC(=O)[C@@H]3CSSC[C@@H](C(=O)N[C@@H](CCCCN)C(=O)N[C@@H](Cc4ccc(O)cc4)C(=O)N[C@H](C(=O)N[C@@H](Cc4ccccc4)C(N)=O)C(C)C)NC(=O)[C@H](Cc4c[nH]c5ccccc45)NC(=O)[C@H](CCCCN)NC(=O)[C@H](Cc4c[nH]cn4)NC(=O)[C@H]([C@@H](C)O)NC(=O)[C@H](CCCNC(=N)N)NC(=O)[C@H](CO)NC(=O)[C@H](CSSC[C@H](NC(=O)[C@H](CCCCN)NC(=O)[C@H](CCCNC(=N)N)NC(=O)[C@H](Cc4ccccc4)NC1=O)C(=O)N[C@@H]([C@@H](C)CC)C(=O)N1CCC[C@H]1C(=O)N[C@@H](CC(=O)O)C(=O)N[C@@H](CC(N)=O)C(=O)N[C@@H](CC(=O)O)C(=O)N[C@@H](CCCCN)C(=O)N3)NC(=O)[C@H](C(C)C)NC(=O)[C@H](CC(C)C)NC(=O)[C@H](CC(N)=O)NC(=O)[C@@H]1CCCN1C(=O)[C@H](CCCNC(=N)N)NC2=O [compound 606] (H-DCLG[Nva]FRKCIPDNDKCCRPNLVCSRTHKWCKYVF-NH2; disulfide 2-17, 9-23, 16-30) the IC50 (hNav1.7) was 84 nM, the IC50 (hNav1.5) was 7.8 µM and the IC50 (hNav1.3) was 170 nM.
Molecule CCCC[C@@H]1NC(=O)CNC(=O)[C@H](CC(C)C)NC(=O)[C@@H](NC(=O)[C@@H](N)CC(=O)O)CSSC[C@@H]2NC(=O)[C@@H]3CSSC[C@@H](C(=O)N[C@@H](CCCCN)C(=O)N[C@@H](Cc4ccc(O)cc4)C(=O)N[C@H](C(=O)N[C@@H](Cc4ccccc4)C(N)=O)C(C)C)NC(=O)[C@H](Cc4c[nH]c5ccccc45)NC(=O)[C@H](CCCCN)NC(=O)[C@H](Cc4c[nH]cn4)NC(=O)[C@H]([C@@H](C)O)NC(=O)[C@H](CCCNC(=N)N)NC(=O)[C@H](CO)NC(=O)[C@H](CSSC[C@H](NC(=O)[C@H](CCCCN)NC(=O)[C@H](CCCNC(=N)N)NC(=O)[C@H](Cc4ccccc4)NC1=O)C(=O)N[C@@H]([C@@H](C)CC)C(=O)N1CCC[C@H]1C(=O)N[C@@H](CC(=O)O)C(=O)N[C@@H](CC(N)=O)C(=O)N[C@@H](CC(=O)O)C(=O)N[C@@H](CCCCN)C(=O)N3)NC(=O)[C@H](C(C)C)NC(=O)[C@H](CC(C)C)NC(=O)[C@H](CC(N)=O)NC(=O)[C@@H]1CCCN1C(=O)[C@H](CCCNC(=N)N)NC2=O [compound 607] (H-DCLG[Nle]FRKCIPDNDKCCRPNLVCSRTHKWCKYVF-NH2; disulfide 2-17, 9-23, 16-30) has an IC50 (hNav1.7) of 16 nM, an IC50 (hNav1.5) of 11.3 µM and an IC50 (hNav1.3) of 67 nM.
